Assay results published in patent publication US20060094676A1, “Compositions and methods for treating cancer using compositions comprising an inhibitor of endothelin receptor activity” (priority 2004, published 2006).

Columns and labels:
caspase 6 = assay: Mch2/Caspase-6 colorimetric protease assay on cell lysates; format: cell-based, human; settings: SK-MEL-28; after 3 days of treatment with BQ788
Experimental: Equal amounts of RNA from cells that were treated with BQ788 for 3 days were subjected to real-time RT-PCR analysis for the detection of BCL-2A1 (A) and ADP ribosyltransferase 3 (B) transcripts. Total amounts are represented in A while relative (to control) values are shown in B. Differences in expression levels are shown as x fold decrease and are statistically significant (p<0.05) unless a column in marked as non significant (N.S.). Lysates of BQ788 treated cells and controls were subjected to an apoptosis ELISA detection test (C). SK-MEL-28 cells were cultured with pan caspase inhibitor (D) or with caspase 6 inhibitor (E) with or without BQ788 for 2.5 days. […] SK-MEL-28 cells were cultured for 3 days in the presence of BQ788 and assayed for caspase 6 activity (F). […]
Caspase 3 inhibitor I (inhibits caspases 3, 6, 7, 8 & 10), cell-permeable (Calbiochem) and Caspase 6 inhibitor II, Cell-Permeable (Calbiochem) were dissolved in DMSO. […] Cell viability was measured using MTS solution in parallel experiments at 5 different time points. Caspase 6 activity was measured using Mch2/Caspase-6 Colorimetric Protease Assay Kit according to the manufacturer's instructions. […] Caspase 6 activity was measured in 4 samples containing equal amounts of protein from each condition by spectrophotometric detection of a chromophore following its release from the labeled caspase 6 substrate VEID. […]

[1] = tested on: Me 191-I/GG (Primary) melanoma cells; assay: MTS assay of cell viability after BQ788; format: cell-based; settings: incubation with BQ788 for seven days; Primary line
Experimental: Cells were cultured on a matrigel matrix that was histologically examined after two weeks (A-F). While the primary melanoma cells remained on top of the gel only (A and B), a fraction of the Cut-met cells invaded the gel (C and D) and the LN-met cells invaded the matrix extensively (E and F). Cell lysates of the three lines were subjected to western blot analysis using an anti-ETRB Ab (G) and an anti-tubulin Ab (H). Untreated, control (vehicle treated), and BQ788 treated cells were subjected to MTS assay to quantify any reduction in cell number. The mean values were calculated and plotted (I) as the percentage of the vehicle treated value+/− SEM.
Human melanoma cell lines Me191-1/GG (Primary), Me 190/DA (Cut-met), Me 275/EP (LN-met) were obtained from the Ludwig Institute (Epalinges, Switzerland) and SK-MEL-28 was obtained from the American Tissue Culture Collection (ATCC). […] After removal of the inserts, MTS solution was added to the well to quantify the cells that migrated through the insert and were attached to the bottom of the well by measuring the OD at 492 nm (Promega). […]
To address the relationship between the level of progression of human melanoma and responsiveness to BQ788 treatment, 3 cell lines that had been grown in culture for a restricted number of passages were used. […] This effect was quantified using the MTS assay.

## CCCC[C@@H](NC(=O)[C@@H](Cc1cn(C(=O)OC)c2ccccc12)NC(=O)[C@H](CC(C)(C)C)NC(=O)N1[C@H](C)CCC[C@@H]1C)C(=O)O [BQ788, N-cis-2,6-dimethylpiperidinocarbonyl-L-γ-methylleucyl-D-1-methoxycarbonyltrptophanyl-D-norleucine]
Caspase 6
  caspase 6 activation: could be detected
[1]
  reduction in cell number: 12%
